Data set [1] has as its target T1, L. lactis NADH oxidase (H2O forming), NoxE, SEQ ID NO: 10 (Lactococcus lactis, UniProt Q9CIG9).
T1 sequence (Q9CIG9 1-446): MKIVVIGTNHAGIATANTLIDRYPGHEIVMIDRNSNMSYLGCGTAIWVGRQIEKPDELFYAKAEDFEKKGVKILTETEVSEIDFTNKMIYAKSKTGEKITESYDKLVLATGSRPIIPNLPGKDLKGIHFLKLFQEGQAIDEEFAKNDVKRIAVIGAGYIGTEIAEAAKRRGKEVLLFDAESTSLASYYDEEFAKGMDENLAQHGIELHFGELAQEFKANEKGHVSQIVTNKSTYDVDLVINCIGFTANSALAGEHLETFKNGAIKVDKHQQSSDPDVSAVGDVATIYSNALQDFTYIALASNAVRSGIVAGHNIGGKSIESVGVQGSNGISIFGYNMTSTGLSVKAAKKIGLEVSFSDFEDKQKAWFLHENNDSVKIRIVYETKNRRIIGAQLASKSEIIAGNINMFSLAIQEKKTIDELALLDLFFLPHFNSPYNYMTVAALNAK
Nature of the data set: NoxE kinetics, monitoring the oxidation of NAD(P)H at 340 nm. In kind it is biochemical.

The target in data set [2] is T2, G. stearothermophilus pyruvate dehydrogenase complex (GsPDH-NAD+, PDH^NADH), wild type (E1a SEQ ID NO: 1, E1b SEQ ID NO: 2, E2 SEQ ID NO: 3, E3^NADH SEQ ID NO: (Geobacillus stearothermophilus, UniProt P11959)).
T2 construct: made in house; host or cells: E. coli
Description: PDH kinetics, monitoring the reduction of NAD(P)^+ at 340 nm. In kind it is biochemical. How it is done:
(§1) The individual domains of G. stearothermophilus PDH were partially purified from E. coli lysates by heat prior to modification and reconstitution of the PDH complex. E1αβ, E2, or E3 containing lysates were incubated at 65° C. for 35 minutes to heat denature E. coli proteins followed by centrifugation at 30,000×g for 20 min to pellet the precipitated proteins. […] Next, the E2 domain was lipoated in the heated extract by the addition of 1 mM (±)-α-lipoic acid, 2 mM ATP, 3 mM MgCl2, and 50 μg of purified 6×His-LplA. The lipoation reaction was then allowed to proceed with gentle mixing overnight at 25° C., yielding lipoated E2 (E2lip). After lipoation, E1αβ, E2lip, and E3 were mixed in a 3:1:3 molar ratio and incubated for at least 1 hour at 25° C. to form the active GsPDH complex. The GsPDH complex was then isolated by ultracentrifugation (Beckman) for 4 hours at 95,000×g. […] The reconstituted complex was stored at 4° C. until use.

Data set [3] has as its target T3, G. stearothermophilus pyruvate dehydrogenase complex, engineered mutant (GsPDH-NADP, PDH^NADPH), E3 mutant E206V, G207R, A208K, S213R (E3^NADPH SEQ ID NO: 7); E1 (Geobacillus stearothermophilus, UniProt P11959, A208K/E206V/G188A/G192A/G207R/S213R).
T3 construct: made in house; host or cells: E. coli
The description is as above. In kind it is biochemical. How it is done:
as §1

Substrate in data set [4]: NC(=O)c1ccc[n+]([C@@H]2O[C@H](COP(=O)(O)OP(=O)(O)OC[C@H]3O[C@@H](n4cnc5c(N)ncnc54)[C@H](O)[C@@H]3O)[C@@H](O)[C@H]2O)c1
Described as above. The note with it: other: 50 mM Tris pH 7.5, 5 mM MgCl2, 5 mM pyruvate, 1 mM CoA, 0.5 mM NAD(P)+. It counts as biochemical, G. stearothermophilus.

Substrate in data set [5]: NC(=O)c1ccc[n+]([C@@H]2O[C@H](COP(=O)(O)OP(=O)(O)OC[C@H]3O[C@@H](n4cnc5c(N)ncnc54)[C@H](OP(=O)(O)O)[C@@H]3O)[C@@H](O)[C@H]2O)c1
Described as above. It counts as biochemical, G. stearothermophilus. The note with it: other: 50 mM Tris pH 7.5, 5 mM MgCl2, 5 mM pyruvate, 1 mM CoA, 0.5 mM NAD(P)+.

Substrate in data set [6]: NC(=O)c1ccc[n+]([C@@H]2O[C@H](COP(=O)(O)OP(=O)(O)OC[C@H]3O[C@@H](n4cnc5c(N)ncnc54)[C@H](O)[C@@H]3O)[C@@H](O)[C@H]2O)c1
Nature of the data set: cells, lysate or membranes named. The note with it: other: 50 mM Tris pH 7.5, 5 mM MgCl2, 5 mM pyruvate, 1 mM CoA, 0.5 mM NAD(P)+.

Substrate in data set [7]: NC(=O)c1ccc[n+]([C@@H]2O[C@H](COP(=O)(O)OP(=O)(O)OC[C@H]3O[C@@H](n4cnc5c(N)ncnc54)[C@H](OP(=O)(O)O)[C@@H]3O)[C@@H](O)[C@H]2O)c1
Description: cells, lysate or membranes named. Conditions: other: 50 mM Tris pH 7.5, 5 mM MgCl2, 5 mM pyruvate, 1 mM CoA, 0.5 mM NAD(P)+.

Substrate in data set [8]: NC(=O)C1=CN([C@@H]2O[C@H](COP(=O)(O)OP(=O)(O)OC[C@H]3O[C@@H](n4cnc5c(N)ncnc54)[C@H](O)[C@@H]3O)[C@@H](O)[C@H]2O)C=CC1
Nature of the data set: purified protein, by the assay type. The note with it: other: 100 mM tris-HCl pH 7.5, 5 mM MgCl2, 5 mM KCl, 0.2 mM NAD(P)H.

Substrate in data set [9]: NC(=O)C1=CN([C@@H]2O[C@H](COP(=O)(O)OP(=O)(O)OC[C@H]3O[C@@H](n4cnc5c(N)ncnc54)[C@H](OP(=O)(O)O)[C@@H]3O)[C@@H](O)[C@H]2O)C=CC1
Nature of the data set: purified protein, by the assay type. The note with it: other: 100 mM tris-HCl pH 7.5, 5 mM MgCl2, 5 mM KCl, 0.2 mM NAD(P)H.

For `NC(=O)C1=CN([C@@H]2O[C@H](COP(=O)(O)OP(=O)(O)OC[C@H]3O[C@@H](n4cnc5c(N)ncnc54)[C@H](O)[C@@H]3O)[C@@H](O)[C@H]2O)C=CC1` [NADH], in data set [1] (Kcat greater with NADH than NADPH), the “Kcat ratio, NADH vs NADPH” value is 248.8 times. Also, the “kcat/Km ratio, NADH vs NADPH” value in data set [1] (kcat/Km greater with NADH than NADPH) is 9900 times.

As for `NC(=O)c1ccc[n+]([C@@H]2O[C@H](COP(=O)(O)OP(=O)(O)OC[C@H]3O[C@@H](n4cnc5c(N)ncnc54)[C@H](O)[C@@H]3O)[C@@H](O)[C@H]2O)c1` [NAD+, nicotinamide adenine dinucleotide], in [2] (kcat higher with NAD^+ than NADP^+), the “kcat ratio, NAD^+ vs NADP^+” value worked out at 11.2 times. In addition, in data set [2] (kcat/Km higher with NAD^+ than NADP^+), the “kcat/Km ratio, NAD^+ vs NADP^+” value was determined as 1150 times.

As for `NC(=O)c1ccc[n+]([C@@H]2O[C@H](COP(=O)(O)OP(=O)(O)OC[C@H]3O[C@@H](n4cnc5c(N)ncnc54)[C@H](OP(=O)(O)O)[C@@H]3O)[C@@H](O)[C@H]2O)c1` [NADP+], the “kcat ratio, NADP^+ vs NAD+” value in data set [3] (kcat higher with NADP^+ than NAD+) came out at 7.3 times. In addition, the “kcat/Km ratio, NADP^+ vs NAD+” value in [3] (kcat/Km higher with NADP^+ than NAD+) was 21 times.

B1: G. stearothermophilus pyruvate dehydrogenase complex, engineered mutant (GsPDH-NADP, PDH^NADPH), E3 mutant E206V, G207R, A208K, S213R (E3^NADPH SEQ ID NO: 7; … (protein)
chain: MVVGDFAIETETLVVGAGPGGYVAAIRAAQLGQKVTIVEKGNLGGVCLNVGCIPSKALISASHRYEQAKHSEEMGIKAENVTIDFAKVQEWKASVVKKLTGGVEGLLKGNKVEIVKGEAYFVDANTVRVVNGDSAQTYTFKNAIIATGSRPIELPNFKFSNRILDSTGALNLGEVPKSLVVIGGGYIAIELATAYANFGTKVTILVRKGEILRGFEKQMAAIIKKRLKKKGVEVVTNALAKGAEEREDGVTVTYEANGETKTIDADYVLVTVGRRPNTDELGLEQIGIKMTNRGLIEVDQQCRTSVPNIFAIGDIVPGPALAHKASYEGKVAAEAIAGHPSAVDYVAIPAVVFSDPECASVGYFEQQAKDEGIDVIAAKFPFAANGRALALNDTDGFLKLVVRKEDGVIIGAQIIGPNASDMIAELGLAIEAGMTAEDIALTIHAHPTLGEIAMEAAEVALGTPIHIITK
notes: made in house; host or cells: E. coli
As for B1, the figures for the Km in data set [4] and in data set [5] were 452.7 ± 178 µM and 157 ± 13 µM, respectively.

B2: G. stearothermophilus pyruvate dehydrogenase complex (GsPDH-NAD+, PDH^NADH), wild type (E1a SEQ ID NO: 1, E1b SEQ ID NO: 2, E2 SEQ ID NO: 3, E3^NADH SEQ ID NO: … (protein)
chain: MVVGDFAIETETLVVGAGPGGYVAAIRAAQLGQKVTIVEKGNLGGVCLNVGCIPSKALISASHRYEQAKHSEEMGIKAENVTIDFAKVQEWKASVVKKLTGGVEGLLKGNKVEIVKGEAYFVDANTVRVVNGDSAQTYTFKNAIIATGSRPIELPNFKFSNRILDSTGALNLGEVPKSLVVIGGGYIGIELGTAYANFGTKVTILEGAGEILSGFEKQMAAIIKKRLKKKGVEVVTNALAKGAEEREDGVTVTYEANGETKTIDADYVLVTVGRRPNTDELGLEQIGIKMTNRGLIEVDQQCRTSVPNIFAIGDIVPGPALAHKASYEGKVAAEAIAGHPSAVDYVAIPAVVFSDPECASVGYFEQQAKDEGIDVIAAKFPFAANGRALALNDTDGFLKLVVRKEDGVIIGAQIIGPNASDMIAELGLAIEAGMTAEDIALTIHAHPTLGEIAMEAAEVALGTPIHIITK
With B2, the Michaelis constant (Km) in data set [6] came to 13.38 ± 0.83 µM; in data set [7], 1381 ± 410 µM.

B3: L. lactis NADH oxidase (H2O forming), NoxE, SEQ ID NO: 10 (Lactococcus lactis subsp. lactis Il1403) (protein)
chain: MKIVVIGTNHAGIATANTLIDRYPGHEIVMIDRNSNMSYLGCGTAIWVGRQIEKPDELFYAKAEDFEKKGVKILTETEVSEIDFTNKMIYAKSKTGEKITESYDKLVLATGSRPIIPNLPGKDLKGIHFLKLFQEGQAIDEEFAKNDVKRIAVIGAGYIGTEIAEAAKRRGKEVLLFDAESTSLASYYDEEFAKGMDENLAQHGIELHFGELAQEFKANEKGHVSQIVTNKSTYDVDLVINCIGFTANSALAGEHLETFKNGAIKVDKHQQSSDPDVSAVGDVATIYSNALQDFTYIALASNAVRSGIVAGHNIGGKSIESVGVQGSNGISIFGYNMTSTGLSVKAAKKIGLEVSFSDFEDKQKAWFLHENNDSVKIRIVYETKNRRIIGAQLASKSEIIAGNINMFSLAIQEKKTIDELALLDLFFLPHFNSPYNYMTVAALNAK
Regarding B3, the Km is 74.93 ± 26 µM in data set [8] and 2951.5 ± 770 µM in data set [9].
